{"source": "patent US11576860B2", "about": "“Retrieval systems and related methods” (Massachusetts Institute of Technology, priority 2018, dated 2023)", "key": {"[1]": {"settings": "pig, in vivo"}, "[2]": {"settings": "cited from earlier work"}, "[3]": {"test": "Blood concentrations of doxycycline hyclate after deployment of drug delivery formulations in pigs (Example 1)", "assay_type": "in vivo", "settings": "drug/vinylpolysiloxane pills (32% drug loading) deployed in three Yorkshire pigs", "protocol": "The model drug, doxycycline hyclate, is added to the Zhermack Elite Double 22 base and catalyst to obtain a final drug loading percentage of 32%. Each pill has around 30 mg of drug (FIG. 1B). Drug crystals less than 75 μm can be visualized on the surface of the pill using scanning electron microscope (FIG. 1C). A series of pills with 0.5 mm holes inside them can be strung on a retention frame such as nitinol superelastic wire and encased in a Tygon tubing with stainless steel beads and Nusil glue at the ends of the article (FIG. 1D). Other drugs such as moxifloxacin, isoniazid, pyrazinamide, and ethambutol can also be mixed with the Zhermack Elite Double 22 base and catalyst at drug loading percentages greater than 25 wt %. Stability of the drug form can be evaluated using proton nuclear magnetic resonance spectroscopy after extraction of the drug from the matrix in water.\nThe pills were created by first mixing the drug into the Zhermack Elite Double 22 base and catalyst. […] Drug loading percentages were determined relative to the finally cured silicone mixture weight. […]\nAfter deployment of the drug delivery formulations in three Yorkshire pigs in a large animal model, concentrations of doxycycline hyclate in the blood were measured, and drug release is sustained for at least 7 days with non-zero values (FIG. 3B)."}}}
{"molecule": "CO[C@H]1/C=C/O[C@@]2(C)Oc3c(C)c(O)c4c(O)c(c(/C=N/N5CCN(C)CC5)c(O)c4c3C2=O)NC(=O)/C(C)=C\\C=C\\[C@H](C)[C@H](O)[C@@H](C)[C@@H](O)[C@@H](C)[C@H](OC(C)=O)[C@@H]1C", "note": "[rifampicin]", "values": [{"measurement": "duration of detectable serum concentrations", "setting": "[1]", "value": "a week"}, {"measurement": "stability in acid", "setting": "[2]", "value": "rapidly degrades in acid"}]}
{"molecule": "doxycycline hyclate", "values": [{"measurement": "drug release sustained with non-zero concentrations in the blood", "setting": "[3]", "value": "at least 7 days"}, {"measurement": "duration drug was detectable in serum", "setting": "[1]", "value": "at least 28 days"}, {"measurement": "time after which no drug was detectable in serum", "setting": "[1]", "value": 3, "unit": "days"}, {"measurement": "time to detectable serum concentrations", "setting": "[1]", "value": "≤ 15", "unit": "min"}]}
